In patent EP2524912A1, “Amine derivatives” (Bionomics Limited, priority 2011, dated 2012) one finds IC50 data, which are given here for 30 compounds.

pIC50: −log10 of the molar value.

By pIC50 is commonly meant the negative decadic logarithm of the IC50, by convention in mol/L.

This assay deals with human Kv1.3 (Homo sapiens, UniProt P22001). Briefly: Kv1.3 patch-clamp electrophysiology (planar electrode, whole-cell, steady state current). The class given is cell-based. Conditions: CHO/Kv1.3 stable cell line; steady state current amplitude at end of 500 ms depolarising pulse to +40 mV; values given as ranges; read-out: IC50 (Kv1.3 ephys steady state). As for the experimental part: The inhibition data shown for the compounds of the list below was calculated using the steady state current amplitude at the end of the depolarising pulse in patch clamp evaluations (as described in the Pharmacology Example 2).
human Kv1.3, sequence (P22001 whole entry): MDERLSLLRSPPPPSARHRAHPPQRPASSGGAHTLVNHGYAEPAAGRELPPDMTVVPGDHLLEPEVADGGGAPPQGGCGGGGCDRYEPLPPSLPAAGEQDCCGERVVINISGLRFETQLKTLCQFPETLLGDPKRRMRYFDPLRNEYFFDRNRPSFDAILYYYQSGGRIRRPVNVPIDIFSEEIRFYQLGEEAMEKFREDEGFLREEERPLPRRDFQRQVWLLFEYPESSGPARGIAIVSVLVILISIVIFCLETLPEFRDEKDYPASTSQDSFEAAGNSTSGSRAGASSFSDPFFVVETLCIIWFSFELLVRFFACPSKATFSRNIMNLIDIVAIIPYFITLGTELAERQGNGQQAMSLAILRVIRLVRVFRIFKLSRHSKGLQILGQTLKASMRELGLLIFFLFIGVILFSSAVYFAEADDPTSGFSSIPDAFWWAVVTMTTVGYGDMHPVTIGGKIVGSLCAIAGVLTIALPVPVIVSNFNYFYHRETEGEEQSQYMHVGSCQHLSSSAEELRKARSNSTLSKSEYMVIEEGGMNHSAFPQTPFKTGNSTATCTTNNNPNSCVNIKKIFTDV
The human Kv1.3 construct (Kv1.3/pENTR, clone IOH61428) was purchased from Invitrogen and subcloned into pcDNA 3.2-DEST (Invitrogen). CHO-K1 cells obtained from ATCC (cat #CCL-61) were transfected with the Kv1.3/pcDNA3.2DEST construct and a stable cell line was developed through two rounds of limiting dilution under G418 selection. Positive (Kv1.3 expressing) clones were identified using electrophysiology.
CHO/Kv1.x stable cell lines were grown in a humidified atmosphere at 37 °C, 5% CO2 in T-75 flasks containing F12 Kaighn's medium supplemented with 10% fetal calf serum, 2 mM L-glutamine, 100 units/ml penicillin, 100 µg/ml streptomycin and 500 µg/ml G418 (to maintain selection). CHO/Kv1.1 and CHO/Kv1.5 cells used for patching were transferred to 33 °C for 48 hours prior to use.
Kv1.x currents were measured using a planar electrode version (Nanion Technologies GMBH) of the patch-clamp technique. Whole-cell Kv1.x current transients were evoked by 500 ms depolarising voltage pulses to +40 mV from a holding potential of -80 mV applied at 10 s intervals for Kv1.1 and Kv1.5 and at 30 s intervals for Kv1.3 to allow adequate time for recovery from inactivation. Cells were continuously bathed in a buffered saline solution containing (mM): 160 NaCl, 4.5 KCI, 2 CaCl2, 1 MgCl2, 5 glucose, 10 HEPES, pH 7.4, 290-310 mOsm.Kg^-1. The internal (pipette) solution contained (mM): 10 NaCl, 70 KF, 75 KCI, 2 MgCl2, 10 HEPES, 10 EGTA, pH 7.2, 290-310 mOsm.Kg^-1. Series resistance compensation (60-80%) was applied when the peak current amplitude exceeded 2 nA.
Compounds were initially dissolved in DMSO to 10 mM. After further dilution in DMSO, compounds were finally diluted in bath solution 1/200 (to give a final DMSO concentration of 0.5%) and applied directly to the recording chamber. Compounds were added at increasing concentrations allowing ample time for steady state block to be achieved between each concentration. Each compound was tested at 5-6 different concentrations on 2-3 cells. IC50 values can be determined by fitting the average normalised reduction of either the current integral or the steady state current amplitude at the end of the depolarising pulse obtained at each compound concentration to the Hill equation. The IC50 data reported herein is based on the steady state calculation.
On the technique in general: In patch-clamp work, channel activity is measured electrically.
With `CC(c1ccc2c(c1)CCC2)N(CCOc1ccccn1)C(=O)CCCc1ccccc1` (stereo not drawn) [Example 51, N-[1-(2,3-dihydro-1H-inden-5-yl)ethyl]-4-phenyl-N-[2-(pyridin-2-yloxy)ethyl]butanamide], the pIC50 is 6.70 to 7.30.

For `O=C(CCc1ccc(F)cc1)N(Cc1ccccn1)C(c1ccccc1)C1CCCC1` (stereo not drawn) [Example 23, N-[cyclopentyl(phenyl)methyl]-3-(4-fluorophenyl)-N-(pyridin-2-ylmethyl)propanamide], the negative logarithm of the IC50 (pIC50) was 6.70 to 7.30.

For `COc1ccc(C(C2CC2)N(Cc2ccccn2)C(=O)CC(C)c2ccc(F)cc2)cc1` (stereo not drawn) [Example 1, N-[cyclopropyl(4-methoxyphenyl)methyl]-3-(4-fluorophenyl)-N-(pyridin-2-ylmethyl)butanamide], the negative logarithm of the IC50 (pIC50) is more than 7.30.

Take `O=C(C1CC1c1ccc(F)cc1)N(Cc1ccccn1)C(c1ccc(Cl)cc1)C1CC1` (stereo not drawn) [Example 10, N-[(4-chlorophenyl)(cyclopropyl)methyl]-2-(4-fluorophenyl)-N-(pyridin-2-ylmethyl)cyclopropanecarboxamide]: the pIC50 is more than 7.30.

In the case of `COc1ccc(CN(C(=O)CCc2ccc(F)cc2)C(C)c2ccccc2)cn1` (stereo not drawn) [Example 43, 3-(4-fluorophenyl)-N-(1-phenylethyl)-N-(6-methoxypyridin-3-ylmethyl)propanamide], the negative logarithm of the IC50 (pIC50) is 6.00 to 6.70.

Take `CC(c1ccc2c(c1)CCC2)N(Cc1ccccn1)C(=O)CCc1ccc(F)cc1` (stereo not drawn) [Example 67, N-[1-(2,3-dihydro-1H-inden-5-yl)ethyl]-3-(4-fluorophenyl)-N-(pyridin-2-ylmethyl)propanamide]: the negative logarithm of the IC50 (pIC50) was 6.00 to 6.70.

With `CC(c1ccc2c(c1)CCC2)N(CCOc1ccccn1)C(=O)C1(c2ccc(Cl)cc2)CCC1` (stereo not drawn) [Example 50, 1-(4-chlorophenyl)-N-[1-(2,3-dihydro-1H-inden-5-yl)ethyl]-N-[2-(pyridin-2-yloxy)ethyl]cyclobutanecarboxamide], the negative logarithm of the IC50 (pIC50) is 6.00 to 6.70.

Turning to `CC(c1ccccc1)N(Cc1ccccn1)C(=O)CCc1ccc(F)cc1` (stereo not drawn) [Example 42, 3-(4-fluorophenyl)-N-(1-phenylethyl)-N-(pyridin-2-ylmethyl)propanamide], the negative logarithm of the IC50 (pIC50) was 6.00 to 6.70.

As for `CC(CC(=O)N(Cc1ccccn1)C(c1ccc(Cl)cc1)C1CC1)S(=O)(=O)c1ccc(F)cc1` (stereo not drawn) [Example 76, N-[(4-chlorophenyl)(cyclopropyl)methyl]-3-[(4-fluorophenyl)sulfonyl]-N-(pyridin-2-ylmethyl)butanamide], the negative logarithm of the IC50 (pIC50) is 6.70 to 7.30.

For the compound `CC(c1ccc2c(c1)SC(C)(C)O2)N(Cc1ccccn1)C(=O)CCc1ccc(F)cc1` (stereo not drawn) [Example 54, N-[1-(2,2-dimethyl-1,3-benzoxathiol-5-yl)ethyl]-3-(4-fluorophenyl)-N-(pyridin-2-ylmethyl)propanamide], the pIC50 is 6.00 to 6.70.

As to `CC(c1ccc2c(c1)SC(C)(C)O2)N(Cc1ccccn1)C(=O)CCc1cccc(C(F)(F)F)c1` (stereo not drawn) [Example 62, N-[1-(2,2-dimethyl-1,3-benzoxathiol-5-yl)ethyl]-N-(pyridin-2-ylmethyl)-3-[3-(trifluoromethyl)phenyl]propanamide], the pIC50 was 6.00 to 6.70.

Take `CC(CCN(C(=O)CN1CCCC(F)(F)C1)C(C)c1ccc2c(c1)CCC2)c1ccc(F)cc1` (stereo not drawn) [Example 69]: the negative logarithm of the IC50 (pIC50) is 6.70 to 7.30.

In the case of `CC(CC(=O)N(CCOc1cccc(Cl)n1)C(C)c1ccc2c(c1)CCC2)c1ccc(F)cc1` (stereo not drawn) [Example 44, N-[1-(2,3-dihydro-1H-inden-5-yl)ethyl]-3-(4-fluorophenyl)-N-[2-(6-chloropyridin-2-yloxy)ethyl]butanamide], the pIC50 is 6.00 to 6.70.

In the case of `COCc1ccccc1C(C)N(Cc1ccccn1)C(=O)CCc1ccc(F)cc1` (stereo not drawn) [Example 57, 3-(4-fluorophenyl)-N-{1-[2-(methoxymethyl)phenyl]ethyl}-N-(pyridin-2-ylmethyl)propanamide], the pIC50 is 6.00 to 6.70.

Regarding `O=C(CCc1ccc(F)cc1)N(Cc1ccccn1)C(c1ccc(F)cc1)C1CCCC1` (stereo not drawn) [Example 21, N-[cyclopentyl(4-fluorophenyl)methyl]-3-(4-fluorophenyl)-N-(pyridin-2-ylmethyl)propanamide], the negative logarithm of the IC50 (pIC50) was 6.70 to 7.30.

In the case of `CC(C)C(c1ccccc1)N(Cc1ccccn1)C(=O)CCc1ccc(F)cc1` (stereo not drawn) [Example 20, 3-(4-fluorophenyl)-N-(2-methyl-1-phenylpropyl)-N-(pyridin-2-ylmethyl)propanamide], the negative logarithm of the IC50 (pIC50) was 6.70 to 7.30.

Take `CC(CC(=O)N(Cc1ccccn1)C(C)c1nncn1C)c1ccc(F)cc1` (stereo not drawn) [Example 78, 3-(4-fluorophenyl)-N-[1-(4-methyl-4H-1,2,4-triazol-3-yl)ethyl]-N-(pyridin-2-ylmethyl)butanamide]: the pIC50 is 6.00 to 6.70.

Regarding `Cc1cccc(OCCN(C(=O)CC(C)c2ccc(F)cc2)C(C)c2ccc3c(c2)CCC3)n1` (stereo not drawn) [Example 52, N-[1-(2,3-dihydro-1H-inden-5-yl)ethyl]-3-(4-fluorophenyl)-N-[2-(6-methylpyridin-2-yloxv)ethyl]butanamide], the pIC50 was 6.00 to 6.70.

Consider `CC(c1ccc2c(c1)CCC2)N(CCOc1cccc(Cl)n1)C(=O)CCc1ccc(F)cc1` (stereo not drawn) [Example 45, N-[1-(2,3-dihydro-1H-inden-5-yl)ethyl]-3-(4-fluorophenyl)-N-[2-(6-chloropyridin-2-yloxy)ethyl]propanamide], for which the pIC50 is 6.00 to 6.70.

With `O=C(CCc1ccc(F)cc1)N(Cc1ccccn1)C(c1ccc(Cl)cc1)C1CC1` (stereo not drawn) [Example 9, N-[cyclopropyl(4-chlorophenyl)methyl]-3-(4-fluorophenyl)-N-(pyridin-2-ylmethyl)propanamide], the pIC50 is 6.70 to 7.30.

Turning to `Cc1cnc(C)c(OCCN(C(=O)CC(C)c2ccc(F)cc2)C(C)c2ccc3c(c2)CCC3)n1` (stereo not drawn) [Example 41, N-[1-(2,3-dihydro-1H-inden-5-yl)ethyl]-3-(4-fluorophenyl)-N-[2-(3,6-dimethylpyrazin-2-yloxy)ethyl]butanamide], the pIC50 was 6.70 to 7.30.

Turning to `CCC(c1ccc2c(c1)CC(C)O2)N(Cc1ccccn1)C(=O)CCc1ccc(F)cc1` (stereo not drawn) [Example 24, 3-(4-fluorophenyl)-N-[1-(2-methyl-2,3-dihydro-1-benzofuran-5-yl)propyl]-N-(pyridin-2-ylmethyl)propanamide], the negative-log IC50 (pIC50) was 6.70 to 7.30.

For `COc1ccc(C(C2CC2)N(Cc2ccccn2)C(=O)CCc2ccc(F)cc2)cc1` (stereo not drawn) [Example 2, N-[cyclopropyl(4-methoxyphenyl)methyl]-3-(4-fluorophenyl)-N-(pyridin-2-ylmethyl)propanamide], the negative-log IC50 (pIC50) is 6.70 to 7.30.

Turning to `Cc1cccc(OCCN(C(=O)CCc2ccc(F)cc2)C(C)c2ccc3c(c2)CCC3)n1` (stereo not drawn) [Example 53, N-[1-(2,3-dihydro-1H-inden-5-yl)ethyl]-3-(4-fluorophenyl)-N-[2-(6-methylpyridin-2-yloxy)ethyl]propanamide], the negative logarithm of the IC50 (pIC50) is 6.70 to 7.30.

Turning to `COCc1ccccc1C(C)N(Cc1ccccn1)C(=O)CS(=O)(=O)c1ccc(F)cc1` (stereo not drawn) [Example 65, 2-[(4-fluorophenyl)sulfonyl]-N-{1-[2-(methoxymethyl)phenyl]ethyl}-N-(pyridin-2-ylmethyl)acetamide], the negative logarithm of the IC50 (pIC50) was less than 6.00.

With `CC(CCN(C(=O)CN1CCC(F)CC1)C(C)c1ccc2c(c1)CCC2)c1ccc(F)cc1` (stereo not drawn) [Example 70, N-[1-(2,3-dihydro-1H-inden-5-yl)ethyl]-N-[3-(4-fluorophenyl)butyl]-2-(4-fluoropiperidin-1-yl)acetamide], the pIC50 is 6.70 to 7.30.

For `CC(CCN(C(=O)c1cccnc1)C(C)c1ccc2c(c1)CCC2)c1ccc(F)cc1` (stereo not drawn) [Example 68, N-[1-(2,3-dihydro-1H-inden-5-yl)ethyl]-N-[3-(4-fluorophenyl)butyl]pyridine-3-carboxamide], the negative logarithm of the IC50 (pIC50) is 6.00 to 6.70.

For the compound `CC(c1ccc2c(c1)CCC2)N(CCOc1ccccn1)C(=O)CCc1ccc(F)cc1` (stereo not drawn) [Example 47, N-[1-(2,3-dihydro-1H-inden-5-yl)ethyl]-3-(4-fluorophenyl)-N-[2-(pyridin-2-yloxy)ethyl]propanamide], the pIC50 was 6.70 to 7.30.

As to `COCc1ccccc1C(C)N(Cc1ccccn1)C(=O)C1(S(=O)(=O)c2ccc(F)cc2)CC1` (stereo not drawn) [Example 66, 1-[(4-fluorophenyl)sulfonyl]-N-{1-[2-(methoxymethyl)phenyl]ethyl}-N-(pyridin-2-ylmethyl)cyclopropanecarboxamide], the pIC50 is 6.70 to 7.30.

For the compound `CC(CC(=O)N(CCOc1ccccn1)C(C)c1ccc2c(c1)CCC2)c1ccc(F)cc1` (stereo not drawn) [Example 46, N-[1-(2,3-dihydro-1H-inden-5-yl)ethyl]-3-(4-fluorophenyl)-N-[2-(pyridin-2-yloxy)ethyl]butanamide], the negative-log IC50 (pIC50) was 6.70 to 7.30.
